Test results reported in patent US10080756B2, “Combination methods for treating cancers” (Gilead Sciences, Inc., priority 2014, dated 2018).
Like-named read-outs stand apart in the source and are kept apart here.

Legend:
DHL-10 = experiment: Cell Titer Glo viability assay, DHL-10, alone or with compound of Formula I (Example 3)
Experimental: All procedures were performed at Gilead Sciences, Inc. in Branford, Conn. […] Compound plates were diluted 1:100 in RPMI without serum or additives but containing either 1% DMSO or 3 μM of the compound of Formula I creating a 10× stock. The DLBCL cell line, DHL-10 was plated at 10,000 cells per well in RPMI supplemented with 10% FBS and 100 U/L penicillin-streptomycin. To each well containing cells, 11 μl of 10× compound mixture in serum-free media was added in a final concentration of 0.2% DMSO and cells were incubated at 37° C. in 5% CO2 for 72 hours. Cell viability was assessed using Cell Titer Glo (CTG, Promega, Madison, Wis.) following the manufacturer's protocol on an Envision plate reader (Perkin Elmer, Waltham, Mass.). CTG signals were recorded for individual compound treatments and combinations. EC50 values were determined using a four parameter variable slope model with GraphPad Prism 6.0 software.

[1] = cited from earlier work
[2] = Cell Titer Glo viability assay, summary over all cell lines tested; assay type: cell-based; conditions: B-cell; range over the 17 cell lines of Table 1; read-out: EC50 values to inhibit cell viability, range over cell lines
Experimental: (§1) All procedures were performed at Gilead Sciences, Inc. in Branford, The compound of formula (I), cyclophosphamide, doxorubicin and vincristine sulfate were dissolved in DMSO to prepare stock solutions that were serially diluted three-fold in DMSO in a 96 well plate format at 1000× so the final starting assay concentrations tested would be 10 μM, 200 μM, 10 μM, and 1 μM respectively, for each compound. Compound plates were diluted 1:100 in RPMI without serum or additives creating a 10× stock. Cells were seeded into a 96-well plate at 10,000-20,000 cells per well in 100 μl of growth media appropriate to the cell line supplemented with 100 U/L penicillin-streptomycin. OCI-Ly3, OCI-Ly4 and OCI-Ly7 were grown in Iscove's+20% FBS, OCI-Ly19 was grown in alphaMEM+20% FBS, and all other cell lines were grown in RPMI+10% FBS. To each well, 11 μl of 10× compound was added in a final concentration of 0.1% DMSO and cells were incubated at 37° C. in 5% CO2 for 72 hours. Cell viability was assessed with Cell Titer Glo (Promega, Madison, Wis.) following the manufacturer's protocol on an Envision plate reader (Perkin Elmer, Waltham, Mass.). EC50 values were determined using a four parameter variable slope model with GraphPad Prism 6.0 software. All EC50 values represent mean values of from duplicate dose response curves.

[3] = tested on: 10 diffuse large B-cell lymphoma (DLBCL), 4 multiple myeloma (MM), 2 follicular lymphoma (FL), and 1 mantle cell lymphoma (MCL) cell lines; experiment: as above; assay type: cell-based; conditions: at concentrations <3000 nM
Experimental: as §1

SMILES	EC50 (DHL-10; Homo sapiens, 72 h, read-out: Inhibition of cell viability EC50, No Compound of Formula I) [nM]	EC50 (DHL-10; read-out: Inhibition of cell viability EC50, +300 nM Compound of Formula I, DHL-10, in combination with 300 nM compound of Formula I, 72 hours) [nM]	solubility ([1]; 95% ethanol)	solubility ([1]; methanol)	solubility ([1]; water)	EC50 [2] [nM]	inhibition of cell viability in any of the cell lines tested [3]
CC[C@]1(O)C[C@H]2CN(CCc3c([nH]c4ccccc34)[C@@](C(=O)OC)(c3cc4c(cc3OC)N(C=O)[C@H]3[C@@](O)(C(=O)OC)[C@H](OC(C)=O)[C@]5(CC)C=CCN6CC[C@]43[C@@H]65)C2)C1 [Vincristine, vincristine]	14.1	3.5	only slightly soluble	soluble	freely soluble	≤ 103	–
c1cn2cc(-c3ccc4cn[nH]c4c3)nc(Nc3ccc(N4CCOCC4)cc3)c2n1 [Compound of Formula I, 6-(1H-indazol-6-yl)-N-(4-morpholinophenyl)imidazo[1,2-a]pyrazin-8-amine]	–	–	–	–	–	–	did not show inhibition cell viability
